Measurements reported in patent publication US6525001B1, “Substituted pyrimidine and pyridine herbicides” (Mid-American Commercialization Corporation, priority 1997, dated 2003).

Legend:
Test in all cases: Test D
Assay type in all cases: in vivo
Conditions in all cases: PREEMERGENCE
[1] = test system: black nightshade (Solanum nigra); parameters: key: 0 is no effect; 100 is complete control
[2] = test system: chickweed (Stellaria media)
[3] = test system: common poppy (Papaver rhoeas); parameters: key: 0 is no effect; 100 is complete control
[4] = test system: scentless chamomile (Matricaria inodora)
[5] = test system: spring barley (Hordeum vulgare)

With `Cc1cnc(-n2cnc(C(F)(F)F)n2)nc1Cn1ccc(C(F)(F)F)n1` [Compound 51] the “Plant response rating, Blk nightshade” value ([1]; Rate 31 g/ha) was 100, the “Plant response rating, Blk nightshade” value ([1]; Rate 62 g/ha) was 95 and the “Plant response rating, Chickweed” value ([2]; Rate 31 g/ha) was 80. The “Plant response rating, Chickweed” value ([2]; Rate 62 g/ha) was 90, the “Plant response rating, Common poppy” value ([3]; Rate 31 g/ha) was 100 and the “Plant response rating, Common poppy” value ([3]; Rate 62 g/ha) was 100. For the same compound, the “Plant response rating, Scentless chamo” value ([4]; Rate 31 g/ha) was 65, the “Plant response rating, Scentless chamo” value ([4]; Rate 62 g/ha) was 70 and the “Plant response rating, Spring Barley” value ([5]; Rate 31 g/ha) was 70. For the same compound, the “Plant response rating, Spring Barley” value ([5]; Rate 62 g/ha) was 80.
